Laboratory results from US20160158381A1, “NOVEL NANOLIPOSOMES AND THEIR USE FOR THE TREATMENT OF AMYLOID PROTEIN DISEASES” (DEPARTMENT OF VETERANS AFFAIRS, TECHNOLOGY TRANSFER PROGRAM, priority 2013, published 2016).
Entries after “also recorded” stand apart in the source; their conditions may differ.

Key:
Type in all cases: cell-based
[1] = tested on: human ex-vivo adipose arterioles exposed to LC; test: Arteriole vasoreactivity after LC exposure with or without NL; conditions: LC+NL co-treated with L-NAME 5 mmol
Experimental: 9 male subjects (64±3 years old) without AL/diabetes/vascular disease undergoing routine abdominal surgery donated subcutaneous adipose tissue obtained by surgeons. Arterioles (˜[…]) were isolated, cannulated and pressurized (60 mmHg). Baseline/control vasoreactivity was performed following preconstriction with endothelin-1 (60% baseline diameter) and successive administration of acetylcholine (10-9-10-4M) to measure endothelium-dependent dilation and papaverine (10^-4M) to measure smooth-muscle dependent dilation (videomicrometer). After washing, vessels were exposed to LC (20 μg/mL, physiologic concentration of circulating LC in patients) with or without NL (1:10 LC:NL mass ratio) for 1 hour and a second vasoreactivity response performed. In additional arterioles, LC+NL were co-treated with L-NG-nitroarginine methyl ester (L-NAME, 5 mmol, Sigma-Aldrich).
Data is expressed as means±standard error of means. Baseline control and post-treatment dilator response were compared using paired Student's t-test. Overall acetylcholine dilator response was analyzed by deriving the log effective concentration 50% (log EC50) using nonlinear regression and variable slope and least squares fit. For group analyses, one-way or two way analysis of variance with Bonferroni post-test were utilized (GraphPad Prism 5.0, San Diego Calif.).

[2] = tested on: human ex-vivo adipose arterioles exposed to soluble amyloid proteins (light chain); test: Arteriole endothelial function after LC exposure with clusterin-incorporated nanoliposomes; conditions: separate experiments; nanoliposomes of cholesterol and phosphatidylcholine; co-treatment with light chain
From the text: Nanoliposomes were composed of cholesterol, phosphatidylcholine and stearyl triphenylphosphonium (STTP) and clusterin was incorporated by noncovalent means.

[3] = tested on: Human umbilical vein endothelial cells (HUVECs); test: Endothelial cell nitric oxide production (DAF-2 diacetate fluorescence); conditions: 1 hour exposure, acetylcholine 10^-4M at 45 minutes
Experimental: Human umbilical vein endothelial cells (HUVECs) were exposed to Aβ42±NLPA or control for 1-hour, acetylcholine (10^-4M) was administered at 45 minutes and nitric oxide (NO production) was measured using DAF-2 diacetate fluorescence (1 hour compared to baseline fluorescence).

[4] = tested on: human abdominal subcutaneous adipose arterioles exposed to Aβ42; test: Arteriole vasoreactivity after Aβ42 exposure with or without nanoliposomes; conditions: for dilator responses to acetylcholine and papaverine (endothelial function): Aβ42 2 μM with or without nanoliposomes (1:10 Aβ:NLPA mass ratio), one hour
Experimental: Human abdominal subcutaneous arterioles were isolated from subjects without vascular disease, pressurized and constricted with endothelin-1. Baseline (control) dilation response was measured following acetylcholine (10_9-10-4M) and papaverine (10^-4M) exposure; after washing, arterioles were exposed to Aβ42 (2 μM)±nanoliposomes (NLPA, 70% cholesterol, 25% phosphatidylcholine, 5% phosphatidic acid, 1:10 Aβ:NLPA mass ratio) and dilator response was measured.

COC(=O)[C@@H](N)CCCNC(=N)N[N+](=O)[O-] [L-NAME, L-NG-nitroarginine methyl ester]
effect of L-NAME on NL protective effect (dilator response) [1]: abolished NL protective effect; also recorded: Nanoliposome protective effect was reversed

free clusterin: free clusterin without nanoliposome; clusterin is apolipoprotein J, a chaperone protein
dilator response to acetylcholine versus baseline [2]: +3.1%

Aβ42: Aβ42 peptide, one of the amyloid proteins involved in AD
NO production [3]: reduced endothelial cell NO gas production | NO production ([3]; listed as Aβ): reduced | dilation to acetylcholine 10^−4M ([4]; Aβ42 2 μM with or without NLPA, 1:10 Aβ:NLPA mass ratio): 61.5±5.7% | dilator responses to acetylcholine and papaverine (endothelial function) [4]: caused endothelial dysfunction | dilator responses to acetylcholine and papaverine (endothelial function) ([4]; listed as Aβ): reduced
